Measurements as given in patent US7671009B2, “Dermopharmaceutically and cosmetically active oligopeptides” (DSM IP Assets B.V., priority 2001, dated 2010).
*: point of attachment. Palmitoyl = CCCCCCCCCCCCCCCC(=O)*

Test system: Collagen Synthesis Type I+III in Fibroblast Cell Cultures (ATCC CCL110)
Experiment: Stimulation of collagen synthesis type I+III in fibroblast cell cultures, Sirius Red microassay
Assay type: cell-based
Settings: 24 hours incubation, control without active = 100%
Description: The collagen I and III content in fibroblasts is measured with the Sirius Red microassay. The quantitative determination of collagen is carried out after 24 hours of incubation with the corresponding oligopeptide derivatives. The extracellularly accumulated collagen is determined. Vitamin C and TGF-beta-1 are used as positive controls.
ATCC CCL110 fibroblasts are incubated in culture medium at a density of approx. 125,000 cells/well in 6-well cell culture plates for 2 days (37° C./5% CO2). Afterwards, the medium is discarded and washed twice with PBS, whereupon 1 ml of test medium with corresponding test substances is added. After incubation with test substance under culture conditions (37° C./5% CO2) for further 24 hours, the extracellular collagen is measured with the Sirius Red assay.
After the incubation period, the total volume of test medium (1 ml) is transferred into a flat-bottom 24-well plate and dried overnight at 55° C. The samples are fixed with 1 ml/well of Bouin's fluid for 1 hour at room temperature (RT). The fixing solution is discarded and the plates are washed 2-3 times with water. After drying of the plates, 1 ml of Sirius Red dye reagent is added.
The samples are shaken for 1 hour at RT on a microplate agitator at moderate intensity. Afterwards, the Sirius Red dye reagent is discarded and the plates are washed with 0.01N HCl. The tinted material is dissolved in 0.3 ml of 0.1N NaOH solution and shaken on a microplate agitator for 1 hour at RT.
200 μl of solution is transferred into a flat-bottom 96-well plate and the optical density is measured at 540 nm against 0.1N NaOH solution as the blank.
Culture medium: MEM+10% FCS+100 IU/ml penicillin+0.1 mg/ml streptomycin+1 mM non essential amino acids+1 mM Na-pyruvate+2 mM L-glutamine.
Test medium: DMEM without phenol red (AMIMED)+100 IU/ml penicillin+0.1 mg/ml streptomycin+80 μg/ml beta(β)-aminopropionitrile.
Vitamin C 100 mM (SIGMA A4034) is diluted to 50 μg/ml in the test medium.
Transforming growth factor TGFβ1 1 μg/ml (SIGMA T1654) is diluted to 0.1 ng/ml in the test medium.
The oligopeptide derivatives of the present invention are prepared in a regular concentration of 10 mM and diluted to 50 μM in the test medium.
Sirius Red F3BA dye reagent as the stock solution 1 mg/ml in saturated aqueous picric acid solution. Bouin's fluid: 15 ml of saturated aqueous picric acid solution+5 ml of formaldehyde+1 ml of acetic acid.

Row | Compound | collagen type I + III after 24 hours, Extracellular (test substance 50 μM) [%] | also measured
1 | O=C1O[C@H]([C@@H](O)CO)C(O)=C1O [Vitamin C, reference compound] | – | collagen type I + III after 24 hours, Extracellular (Vitamin C positive control, diluted to 50 μg/ml in test medium): 128%
2 | Lipoyl-Lys (Lipoyl)-Thr-Thr-Lys (Lipoyl)-Ser-OH | 162 | –
3 | H-Lys-Thr-Thr-Dab-Ser-OH × 3 AcOH | 137 | –
4 | H-Dab-Ser-OH × 2 TFA | 131 | –
5 | H-Lys-allo-Thr-allo-Thr-Lys-Ser-OH × 3 AcOH | 139 | –
6 | H-Lys-Thr-allo-Thr-Lys-Ser-OH × 3 AcOH | 134 | –
7 | TGFβ1: Transforming growth factor TGFβ1 (SIGMA T1654), positive control [reference compound] | – | collagen type I + III after 24 hours, Extracellular (0.1 ng/ml): 115%
8 | Palm-Lys-Thr-Ser-Lys-Ser-OH (Palmitoyl-KTSKS-OH; SMILES CCCCCCCCCCCCCCCC(=O)N[C@@H](CCCCN)C(=O)N[C@H](C(=O)N[C@@H](CO)C(=O)N[C@@H](CCCCN)C(=O)N[C@@H](CO)C(=O)O)[C@@H](C)O) | 128 | –
